The source made the active and inactive calls. The rule behind the calls is not given here.
Assays:
Echinococcus granulosus [1] = test: Parasiticidal activity against Echinococcus granulosus protoscolices […] by eosin exclusion test; type: functional; settings: 1152 h, time 48 day
Echinococcus granulosus [2] = test: Parasiticidal activity against Echinococcus granulosus protoscolices assessed as death rate at 1 uM incubated for 48 hrs by eosin exclusion test; type: functional
Echinococcus granulosus [3] = test: Parasiticidal activity against Echinococcus granulosus protoscolices assessed as loss of suckers at 5 uM incubated for 4 days by scanning electron microscopy; type: functional; settings: time 4.0 day
Echinococcus granulosus [4] = test: Parasiticidal activity against Echinococcus granulosus assessed as collapse of germinal layers at 100 uM incubated for 4 days by scanning electron microscopy; type: functional, organism-based; settings: time 4.0 day
Echinococcus granulosus [5] = test: Parasiticidal activity against Echinococcus granulosus protoscolices assessed as death rate at 0.5 uM incubated for 4 days by eosin exclusion test; type: functional; settings: time 4 day
Echinococcus granulosus [6] = test: Parasiticidal activity against Echinococcus granulosus protoscolices assessed as appearance of blurred marginal structure at 5 uM incubated for 4 days by scanning electron microscopy analysis; type: functional, organism-based; settings: time 4.0 day
Echinococcus granulosus [7] = test: Parasiticidal activity against Echinococcus granulosus protoscolices assessed as loss of hooks at 5 uM incubated for 4 days by scanning electron microscopy; type: functional, organism-based; settings: time 4.0 day
[8] = AUC (0 to infinity) in Wistar rat at 5 mg/kg, iv by HPLC analysis; type: ADME, organism-based; design: dose 5 mg/kg, route iv; settings: in vivo
[9] = Oral bioavailability in Wistar rat at 50 mg/kg, […] by HPLC analysis; type: ADME, organism-based; settings: in vivo
Echinococcus granulosus [10] = test: Parasiticidal activity against Echinococcus granulosus protoscolices assessed as increase in death rate at 5 uM incubated for 4 days by darker staining-based light microscopy; type: functional, organism-based; settings: time 4.0 day
Echinococcus granulosus [11] = test: Parasiticidal activity against Echinococcus granulosus protoscolices assessed as degeneration of outer skin at 5 uM incubated for 4 days by scanning electron microscopy; type: functional, organism-based; settings: time 4.0 day
Echinococcus granulosus [12] = test: Parasiticidal activity against Echinococcus granulosus protoscolices assessed as partial vacuolar change at 5 uM incubated for 4 days by scanning electron microscopy analysis; type: functional, organism-based; settings: time 4.0 day
Echinococcus granulosus [13] = test: Parasiticidal activity against Echinococcus granulosus protoscolices assessed as appearance of body shrank at 5 uM incubated for 4 days by scanning electron microscopy analysis; type: functional, organism-based; settings: time 4.0 day
Echinococcus granulosus [14] = test: Parasiticidal activity against Echinococcus granulosus protoscolices assessed as appearance of rostellum hooks fall off at 5 uM incubated for 4 days by scanning electron microscopy analysis; type: functional, organism-based; settings: time 4.0 day
Echinococcus granulosus [15] = test: Parasiticidal activity against Echinococcus granulosus protoscolices assessed as death rate at 5 uM incubated for 4 days by eosin exclusion test; type: functional; settings: time 4 day
Echinococcus granulosus [16] = test: Parasiticidal activity against Echinococcus granulosus protoscolices assessed as lethal effect incubated for 4 days by eosin exclusion test; type: functional, organism-based; settings: dose 0.5-5 µM, time 4.0 day
[17] = Cmax in Wistar rat at 5 mg/kg, iv by HPLC analysis; type: ADME, organism-based; design: dose 5 mg/kg, route iv; settings: in vivo
Echinococcus granulosus [18] = test: Parasiticidal activity against Echinococcus granulosus cyst assessed as seperation from cuticle at 100 uM incubated for 4 days by scanning electron microscopy; type: functional, organism-based; settings: time 4.0 day
Echinococcus granulosus [19] = test: Parasiticidal activity against Echinococcus granulosus protoscolices assessed as lethal effect at 0.5 to 5 uM by eosin exclusion test; type: functional, organism-based; settings: dose 0.5-5 µM, TDE = time-dependent effect
Echinococcus granulosus [20] = test: Parasiticidal activity against Echinococcus granulosus protoscolices assessed as change in ultrastructure at 5 uM incubated for 4 days by scanning electron microscopy; type: functional, organism-based; settings: time 4.0 day
Echinococcus granulosus [21] = test: Parasiticidal activity against Echinococcus granulosus cyst assessed as formation of dense aggregates at 100 uM incubated for 4 days by scanning electron microscopy; type: functional, organism-based; settings: time 4.0 day
Echinococcus granulosus [22] = test: Inhibition of Echinococcus granulosus; type: functional

Structure (SMILES): Cc1ccc(-c2nc(NC(=O)c3ccc(CN4CCC(N5CCCCC5)CC4)cc3)cc3c2[nH]c2ccccc23)cc1
- LC50 (Echinococcus granulosus [1]): 12.5 µM
- Activity (Echinococcus granulosus [2]): Active

Structure (SMILES): COc1cccc(-c2nc(NC(=O)c3ccc(CN4CCCN(C)CC4)cc3)cc3c2[nH]c2ccccc23)c1
- LC50 (Echinococcus granulosus [1]): 17.9 µM

Structure (SMILES): COc1cccc(-c2nc(C(=O)Nc3ccc(CN4CCC(N5CCCCC5)CC4)cc3)cc3c2[nH]c2ccccc23)c1
- LC50 (Echinococcus granulosus [1]): 18.1 µM
- Activity (Echinococcus granulosus [2]): Active

Structure (SMILES): COc1ccc(-c2nc(NC(=O)c3ccc(CN4CCC(N5CCCCC5)CC4)cc3)cc3c2[nH]c2ccccc23)cc1OC
- Activity (Echinococcus granulosus [3]): Active
- LC50 (Echinococcus granulosus [1]): 3.59 µM
- Activity (Echinococcus granulosus [4]): Active
- Activity (Echinococcus granulosus [5]): >50%
- Activity (Echinococcus granulosus [6]): Active
- Activity (Echinococcus granulosus [7]): Active
- AUC(0-inf) [8]: 1770 ng·h/mL
- bioavailability [9]: 26.8%
- Activity (Echinococcus granulosus [10]): Active
- Activity (Echinococcus granulosus [11]): Active
- Activity (Echinococcus granulosus [12]): Active
- Activity (Echinococcus granulosus [13]): Active
- Activity (Echinococcus granulosus [14]): Active
- Activity (Echinococcus granulosus [15]): >90%
- Activity (Echinococcus granulosus [16]): Dose-Dependent Effect
- Activity (Echinococcus granulosus [2]): 56.27%
- Cmax [17]: 1400 ng/mL
- Activity (Echinococcus granulosus [18]): Active
- Activity (Echinococcus granulosus [19]): Tde
- Activity (Echinococcus granulosus [20]): Active
- Activity (Echinococcus granulosus [21]): Active

Structure (SMILES): COc1cc(-c2nc(NC(=O)c3ccc(CN4CCCN(C)CC4)cc3)cc3c2[nH]c2ccccc23)cc(OC)c1OC
- LC50 (Echinococcus granulosus [1]): 16 µM
- Activity (Echinococcus granulosus [2]): Active

Structure (SMILES): COc1ccc(-c2nc(NC(=O)c3ccc(CN4CCCN(C)CC4)cc3)cc3c2[nH]c2ccccc23)cc1OC
- LC50 (Echinococcus granulosus [1]): 13.2 µM
- Activity (Echinococcus granulosus [2]): Active

Structure (SMILES): CCCCn1c2ccccc2c2ccnc(-c3ccc(OC)cc3)c21
- LC50 (Echinococcus granulosus [22]): 47.8 µM

Structure (SMILES): COc1ccccc1-c1nc(C(=O)Nc2ccc(CN3CCC(N4CCCCC4)CC3)cc2)cc2c1[nH]c1ccccc12
- LC50 (Echinococcus granulosus [1]): 13.4 µM
- Activity (Echinococcus granulosus [2]): Active

— ChEMBL document CHEMBL5344429, “1,3-Substituted β-Carboline Derivatives as Potent Chemotherapy for the Treatment of Cystic Echinococcosis” (J Med Chem, 2023)
